Assay results taken from publication PMC2662387 (Journal of medicinal chemistry, 2008).

Columns and labels:
Aqueous solubility = assay type: physicochemical
D3 receptor [1] = target: T1, D3 receptor (Rattus norvegicus, UniProt P19020); assay: D3 receptor binding assay, [3H]PD128907, rat brain; conditions: for Fold less potent than 6 at the D3 receptor: relative to compound 6
D2 receptor = D2 receptor (Rattus norvegicus, UniProt P61169); assay: Hypothermia in rats; assay type: in vivo; conditions: for Induction of hypothermia: compound alone
D3 receptor [2] = target: T1, D3 receptor; assay type: in vivo; conditions: rats

T1 sequence (P19020 whole entry): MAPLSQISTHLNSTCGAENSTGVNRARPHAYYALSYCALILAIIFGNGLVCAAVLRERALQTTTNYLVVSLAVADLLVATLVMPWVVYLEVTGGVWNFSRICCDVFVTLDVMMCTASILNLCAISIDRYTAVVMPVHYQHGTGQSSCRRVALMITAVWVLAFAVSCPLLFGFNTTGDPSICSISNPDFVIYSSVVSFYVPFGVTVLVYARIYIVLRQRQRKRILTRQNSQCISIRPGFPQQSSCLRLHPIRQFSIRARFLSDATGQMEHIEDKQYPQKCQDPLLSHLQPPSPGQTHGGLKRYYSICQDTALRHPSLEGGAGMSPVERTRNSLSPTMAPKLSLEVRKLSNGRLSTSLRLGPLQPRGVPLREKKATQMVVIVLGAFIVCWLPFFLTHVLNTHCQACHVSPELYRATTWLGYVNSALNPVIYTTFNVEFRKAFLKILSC
D2 receptor, sequence (P61169 whole entry): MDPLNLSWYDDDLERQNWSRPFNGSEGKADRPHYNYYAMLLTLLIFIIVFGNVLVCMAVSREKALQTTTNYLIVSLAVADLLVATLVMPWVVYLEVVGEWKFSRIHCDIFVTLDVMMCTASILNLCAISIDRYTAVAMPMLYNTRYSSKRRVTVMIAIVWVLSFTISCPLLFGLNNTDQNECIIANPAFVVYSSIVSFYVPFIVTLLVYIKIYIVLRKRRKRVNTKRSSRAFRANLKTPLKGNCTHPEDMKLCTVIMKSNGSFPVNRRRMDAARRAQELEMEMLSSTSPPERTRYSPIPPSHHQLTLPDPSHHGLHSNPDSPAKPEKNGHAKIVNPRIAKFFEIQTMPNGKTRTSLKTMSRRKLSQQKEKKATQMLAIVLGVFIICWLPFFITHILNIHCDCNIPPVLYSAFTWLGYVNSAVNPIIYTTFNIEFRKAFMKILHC

Aqueous solubility (in words) (Aqueous solubility) | Structure (SMILES) | Induction of hypothermia (D2 receptor) | further results
poor aqueous solubility | COc1ccc2c(c1)CC[C@@H]1CN(CC[C@H]3CC[C@H](NC(=O)c4ccc5ccccc5c4)CC3)CCN21 [Compound 4, reference compound] | – | Selectivity D1-like/D3 (D3 receptor [1]; ratio of Ki values): >5000 fold; Selectivity D2-like/D3 (D3 receptor [1]; ratio of Ki values, high affinity D2 component where 2-site fit): >1000 fold
– | Nc1nc2c(s1)C[C@@H](NCC[C@H]1CC[C@H](NC(=O)c3ccc4ccccc4c3)CC1)CC2 [Compound 10] | – | Fold less potent than 6 at the D3 receptor (D3 receptor [1]): 19 times
good aqueous solubility | CCCN(CC[C@H]1CC[C@H](NC(=O)/C=C/c2ccccc2)CC1)[C@H]1CCc2nc(N)sc2C1 [Compound 12] | failed to induce changes in body temperature over the initial hour of observation | Effect on compound 1-induced hypothermia (D2 receptor; pretreatment with 12): failed to alter the induction of hypothermia by 1
– | CC(C)CCN(CC[C@H]1CC[C@H](NC(=O)c2ccc3ccccc3c2)CC1)[C@H]1CCc2nc(N)sc2C1 [Compound 8] | – | Fold less potent than 6 at the D3 receptor (D3 receptor [1]): 5 times
good aqueous solubility | CCCN(CC[C@H]1CC[C@H](NC(=O)c2ccc3ccccc3c2)CC1)[C@H]1CCc2nc(N)sc2C1.Cl.Cl [Compound 6] | failed to induce changes in body temperature over the initial hour of observation | –
good aqueous solubility | CCCN(CCCCNC(=O)c1ccc2ccccc2c1)[C@H]1CCc2nc(N)sc2C1 [Compound 5] | hypothermia was induced by 5 at higher doses | –
– | CCCN[C@H]1CCc2nc(N)sc2C1 [Compound 1, pramipexole, reference compound] | induction of hypothermia occurring at higher doses | Induction of yawning (D3 receptor [2]; compound alone, dose-response): increases in yawning were observed over low doses (0.01 to 0.1 mg/kg); In vivo functional profile at D3 and D2 receptors (D3 receptor [2]; concluded from yawning and hypothermia assays): preferential D3 agonist in vivo and a D2 agonist at higher doses
